Source: patent publication US20110263478A1, “SUR1 INHIBITORS FOR THERAPY” (priority 2008, published 2011)

How the values were obtained:
[1] = biological target: native and recombinant β-cell KATP channels (Homo sapiens, UniProt Q09428); conditions: read-out: IC50, block of β-cell KATP channels; cited from earlier work
[2] = test system: rats with spinal cord injury (SCI); test: Rat cervical SCI model: hemorrhage / extravasated blood in cord; format: in vivo; conditions: 1 d post-SCI
Method: Constant infusion of a low-dose of drug was used to achieve sustained occupancy of only high-affinity receptors.
(§1) SCI injury model. This study was performed in accordance with the guidelines of the Institutional Animal Care and Use Committee. Adult female Long-Evans rats (275-350 gm) were anesthetized (Ketamine, 60 mg/kg plus Xylazine, 7.5 mg/kg, i.p.). The dura at C4-5 was exposed via a left hemilaminectomy. A hemi-cervical spinal cord contusion was created using a blunt force impactor (1.3-mm impactor head driven by a 10 gm weight dropped vertically 25 mm) (Soblo sky et al., 2001; Gensel et al., 2006). After SCI, animals were given 10 ml of glucose-free normal saline s.q. Rectal temperature was maintained at ˜37° C. using a servo-controlled warming blanket. Blood gases and serum glucose 10-15 min post-SCI were: pO2, 95±6 mm Hg; pCO2, 46±3 mm Hg; pH, 7.33±0.01; glucose 258±17 mg/dl in controls and pO2, 96±7 mm Hg; pCO2, 45±2 mm Hg; pH, 7.37±0.01; glucose 242±14 mg/dl in glibenclamide-treated animals.
(§2) Drug delivery. […] During the course of the project, slightly different formulations of drug were used, with the best results obtained using stock solutions made by placing 50 mg (or 25 mg) of drug into 10 ml DMSO, and infusion solutions made by placing 400 μl (or 800 μl) stock into 4.6 ml (or 4.2 ml) unbuffered saline (0.9% NaCl) and adjusting the pH to ˜8.5 using 0.1 N NaOH.
(§3) For in vivo gene suppression of SUR1, we used oligodeoxynucleotides that were phosphorothioated at 4 distal bonds to protect against endogenous nucleases (35). Within a few min of SCI, mini-osmotic pumps (Alzet 2002, 0.5 μl/h; Durect Corporation) with jugular vein catheters were implanted that delivered either scrambled sequence ODN (Scr-ODN) (5′-[…]-3′; SEQ ID NO:1) or antisense ODN (AS-ODN) (5′-[…]-3′; SEQ ID NO:2) (Yokoshiki et al., 1999) in PBS at a rate of 1 mg/rat/24 h.
Tissue blood. Rats were sacrificed at various times after SCI (n=5-11 rats/group), were perfused with heparinized saline to remove intravascular blood, and 5-mm segments of cord encompassing the lesion were homogenized and processed as described (Choudhri et al., 1997).

[3] = test system: rats with spinal cord injury (SCI); test: Rat cervical SCI model: histology, capillaries and lesion size; format: in vivo; conditions: 7 d post-SCI
Method: as §1, §2
Lesion size. At 7 d post-SCI, cords were paraffin sectioned and stained with H&E. Lesion volumes were calculated from lesion areas measured on serial sections every 250 μm.
Immunohistochemistry. Cryosections were immunolabeled (Chen et al., 2003; Simard et al., 2006) using primary antibodies directed against SUR1 (Santa Cruz, C-16; 1:200; 1 h at RT, 48 h at 4° C.), SUR2 (Santa Cruz, H-80; 1:200; 1 h at RT, 48 h at 4° C.), GFAP (Sigma, C-9205; 1:500), and vimentin (Sigma, monoclonal CY3 conjugated; 1:100). Quantitative immunofluorescence was performed as described (Gerzanich et al., 2003).

[4] = test system: rats with spinal cord injury (SCI); test: Rat cervical SCI model: neurobehavioral assessment (inclined plane, paw placement, rearing); format: in vivo
Method: as §1, with “blanket.” for “blanket. Blood gases and serum glucose 10-15 min post-SCI were: pO2, 95±6 mm Hg; pCO2, 46±3 mm Hg; pH, 7.33±0.01; glucose 258±17 mg/dl in controls and pO2, 96±7 mm Hg; pCO2, 45±2 mm Hg; pH, 7.37±0.01; glucose 242±14 mg/dl in glibenclamide-treated animals.”
For in vivo gene suppression of SUR1, we used oligodeoxynucleotides that were phosphorothioated at 4 distal bonds to protect against endogenous nucleases (35).
Neurobehavioral assessment. All measurements were performed by blinded evaluators. Performance on the inclined plane was evaluated as described (Rivlin and Tator, 1977). To assess paw placement and vertical exploration (rearing) (Nikulina et al., 2004) animals were videotaped while in a translucent cylinder (19×20 cm). Rearing was quantified as the number of seconds spent with both front paws elevated above shoulder-height during a 3-min period of observation.

[5] = biological target: SUR1-regulated NCCa-ATP channels (Rattus norvegicus, UniProt Q09429); conditions: read-out: EC50, block of SUR1-regulated NCCa-ATP channel; cited from earlier work
[6] = test system: SUR1; test: SCI with i.v. ODN: SUR1 immunolabeling of cord; format: in vivo, rat
Excerpt: For studies with SCI, AS-ODN and Scr-ODN were used that were phosphorothioated at 4 distal bonds to protect against endogenous nucleases (Galderisi et al., 1999), with ODN's administered i.v. starting immediately after injury. […] With Scr-ODN, the necrotic void beneath the impact site was surrounded by an SUR1-positive shell of tissue, similar to observations in untreated animals (FIG. 1a). With AS-ODN, however, only the small volume of tissue immediately beneath the impact site was labeled for SUR1, and no necrotic void was evident (FIG. 5c).
as §3
Immunohistochemistry. […] Quantitative immunofluorescence was performed as described (Gerzanich et al., 2003).

[7] = test system: SUR1; test: Gliotic capsule model with ODN infusion: SUR1 Western blot and astrocyte patch clamp; format: in vivo, rat
Method: To validate the antisense strategy, it was first implemented in the model that was originally used for the discovery of the NCCa-ATP channel, wherein a gelatin sponge is implanted into the parietal lobe to stimulate formation of a gliotic capsule (Chen and Simard, 2001). Here, animals were also fitted with mini-osmotic pumps that delivered oligodeoxynucleotides (ODN), either antisense (AS) or scrambled (Scr), continuously for 7 d into the injury site.
SUR1 knock-down in astrocytes was performed in triplicates by implanting rats with gelatin sponges in the parietal lobe to induce formation of a gliotic capsule containing reactive astrocytes that express the SUR1-regulated NCCa-ATP channel (Chen and Simard, 2001; Chen et al., 2003). At the same time, they were implanted with mini-osmotic pumps (Alzet, model 2002; 14-day pump) placed in the dorsal thoracolumbar region that contained ODN (711 μg/ml delivered @ 0.5 μl/h, yielding 1500 picomoles/day), with the delivery catheter placed directly into the site of the gelatin sponge implant in the brain. Animals were infused with Src-ODN or AS-ODN, as above but not phosphorothioated. After 10-14 days, the gelatin sponge plus encapsulating gliotic tissues were harvested and processed either for Western immunoblots or to obtain fresh reactive astrocytes for patch clamp electrophysiology. […]

[8] = test system: Abcc8 mRNA and SUR1 protein in bEnd.3 cells; test: TNFα exposure of bEnd.3 cells: RT-PCR and immunoblot for Abcc8 / SUR1; format: cell-based, murine; conditions: 6-hr exposure, 20 ng/ml
Method: Immunoblot. Lysates of inferomedial cortex, or of cultured bEnd.3 cells (ATCC, Monassas, Va.) that had been exposed to TNFα (20 ng/ml) for 6 hr, were prepared by homogenizing in RIPA lysis buffer. SUR1 was immunoisolated using a custom antibody raised against amino acids 598-965 (Protein Id, NP_037171) in rabbits by a commercial service (Covance, Denver, Pa.). This custom antibody was used to immunoisolate SUR1 using standard techniques, following which immunoisolated SUR1 was run on electrophoretic gels (NuPAGE® 4-12% Bis-Tris gels; Novex, Invitrogen, Carlsbad, Calif.). SUR1 was detected using the same custom antibody. Membranes were stripped and re-blotted for β-actin (1:5000; Sigma), which was used as a loading control. Detection was carried out using the ECL system (Amersham BioTBIences, Inc.) with routine imaging (Fuji LAS-3000) and quantification (Scion Image, Scion Corp, Frederick, Md.).
RT-PCR. bEnd.3 cells were exposed to TNFα (20 ng/ml) for 6 hr. RNA was extracted with TRIzol reagent (Invitrogen). RT-PCR was performed using Reverse Transcription System (Promega). The target transcript was reverse transcribed at RT for 10 min, then incubated at 42° C. for 15 min. The cDNA was amplified using 35 cycles under the following conditions: 94° C. for 30 sec; 57° C. for 45 sec; 72° C. for 45 sec. […] RT-PCR products (449 bp) were analyzed using 2.0% agarose/EtBr gel electrophoresis.

[9] = test system: rAbcc8 promoter / NFκB consensus sequences; test: Luciferase reporter assay in HeLa cells; format: cell-based; conditions: 20 ng/ml
Method: Luciferase reporter assay. TNFα-stimulated activity of the promoter region of Abcc8 was determined using luciferase reporter plasmids as previously described. HeLa cells were transfected with luciferase reporter plasmids containing the rAbcc8 promoter (−3853 to +125) or four tandem NFκB consensus sequences (Clonetech, Mountain View, Calif.) using Lipofectamine-2000 (Invitrogen). Co-transfection of pRL-CMV, Renilla luciferase expression plasmid served as a control for transfection efficiency. The luciferase activity of cell extracts was determined using the Dual Luciferase system from Promega.

[10] = biological target: T1, SUR-regulated channels (KATP / NCCa-ATP) in human aortic endothelial cells (Homo sapiens, UniProt Q09428); test: Nystatin-perforated patch clamp, diazoxide activation in endothelial cells cultured under normoxic or hypoxic conditions; format: cell-based; conditions: most endothelial cells cultured under hypoxic conditions
T1 construct: host or cells: human aortic endothelial cells, cultured under normoxic or hypoxic conditions
Method: (§4) Patch clamp of endothelial cells was performed using a nystatin-perforated patch technique, to maintain the metabolic integrity of the cells. The identity of the activated channel can be assessed by measurement of the “reversal potential”, the potential at which an ion channel current reverses from inward to outward. With physiologically relevant concentrations of ions intracellularly and extracellularly (high potassium inside, high sodium outside), the reversal potential can unambiguously distinguish between a K^+ channel current such as KATP, which reverses negative to −50 mV and a non-selective cation channel current such as NCCa-ATP, which reverses near 0 mV.
(§5) Cell culture. Endothelial cell cultures from human brain microvessels, human aorta (ScienCell Research Laboratories), and murine brain microvessels (bEnd.3; ATCC), were grown at low density using media and supplements recommended by suppliers.

[11] = test system: SUR-regulated channels (KATP / NCCa-ATP) in human aortic endothelial cells; test: as above; format: cell-based; conditions: endothelial cells cultured under normoxic conditions
Method: as §4, §5

[12] = 1 d post-SCI, ODN i.v., vs Scr-ODN

Sequence of native and recombinant β-cell KATP channels (Q09428 whole entry): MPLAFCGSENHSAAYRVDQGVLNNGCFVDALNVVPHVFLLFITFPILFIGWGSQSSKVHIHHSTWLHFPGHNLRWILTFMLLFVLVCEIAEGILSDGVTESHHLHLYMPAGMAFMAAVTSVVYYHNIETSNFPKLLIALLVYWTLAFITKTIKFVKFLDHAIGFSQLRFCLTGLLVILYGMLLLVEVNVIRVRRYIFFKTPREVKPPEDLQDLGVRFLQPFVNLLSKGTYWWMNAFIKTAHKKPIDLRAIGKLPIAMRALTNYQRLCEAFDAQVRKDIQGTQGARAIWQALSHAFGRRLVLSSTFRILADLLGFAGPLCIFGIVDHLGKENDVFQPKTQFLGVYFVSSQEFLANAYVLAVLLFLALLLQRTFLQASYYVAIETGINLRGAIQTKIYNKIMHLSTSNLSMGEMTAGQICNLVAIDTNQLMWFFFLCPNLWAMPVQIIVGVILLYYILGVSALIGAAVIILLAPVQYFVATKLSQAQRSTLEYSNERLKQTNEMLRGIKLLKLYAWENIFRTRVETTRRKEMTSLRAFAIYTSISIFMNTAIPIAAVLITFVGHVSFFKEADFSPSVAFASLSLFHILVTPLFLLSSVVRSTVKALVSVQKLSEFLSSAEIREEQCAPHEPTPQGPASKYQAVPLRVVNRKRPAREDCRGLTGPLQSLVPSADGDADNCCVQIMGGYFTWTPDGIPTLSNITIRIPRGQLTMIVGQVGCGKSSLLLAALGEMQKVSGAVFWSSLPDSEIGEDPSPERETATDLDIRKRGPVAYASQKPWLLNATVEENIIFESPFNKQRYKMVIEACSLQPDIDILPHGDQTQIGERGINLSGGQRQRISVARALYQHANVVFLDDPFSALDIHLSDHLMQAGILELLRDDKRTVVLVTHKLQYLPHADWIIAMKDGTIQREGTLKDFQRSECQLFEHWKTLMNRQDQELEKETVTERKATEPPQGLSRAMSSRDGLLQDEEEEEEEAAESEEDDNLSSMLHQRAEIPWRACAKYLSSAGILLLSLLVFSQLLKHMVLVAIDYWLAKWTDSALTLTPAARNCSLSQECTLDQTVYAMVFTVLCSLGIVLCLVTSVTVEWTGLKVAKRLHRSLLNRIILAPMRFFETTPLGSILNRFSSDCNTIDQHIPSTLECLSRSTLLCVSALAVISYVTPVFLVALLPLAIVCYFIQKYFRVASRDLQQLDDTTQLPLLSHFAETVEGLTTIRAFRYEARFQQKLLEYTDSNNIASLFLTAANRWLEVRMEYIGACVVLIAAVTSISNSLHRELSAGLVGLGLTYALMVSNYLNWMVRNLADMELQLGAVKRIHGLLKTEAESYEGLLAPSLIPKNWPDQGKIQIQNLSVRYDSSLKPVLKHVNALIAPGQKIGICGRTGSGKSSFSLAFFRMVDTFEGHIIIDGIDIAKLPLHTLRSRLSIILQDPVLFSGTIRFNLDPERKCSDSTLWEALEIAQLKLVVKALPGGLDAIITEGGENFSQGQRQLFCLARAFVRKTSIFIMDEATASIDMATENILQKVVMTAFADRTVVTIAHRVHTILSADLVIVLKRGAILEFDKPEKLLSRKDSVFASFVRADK
Sequence of native and recombinant β-cell KATP channels (Q14654 whole entry partner): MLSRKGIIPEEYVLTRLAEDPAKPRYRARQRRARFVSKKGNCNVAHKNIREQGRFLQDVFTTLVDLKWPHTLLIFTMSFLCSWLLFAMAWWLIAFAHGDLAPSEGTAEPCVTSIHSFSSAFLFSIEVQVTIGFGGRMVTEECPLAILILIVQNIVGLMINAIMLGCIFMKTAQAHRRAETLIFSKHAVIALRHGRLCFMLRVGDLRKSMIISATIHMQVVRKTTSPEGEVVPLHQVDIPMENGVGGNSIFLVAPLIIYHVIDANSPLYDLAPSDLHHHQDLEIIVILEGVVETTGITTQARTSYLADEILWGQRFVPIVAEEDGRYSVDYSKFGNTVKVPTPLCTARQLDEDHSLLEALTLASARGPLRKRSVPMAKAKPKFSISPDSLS
T1 sequence (Q09428 whole entry): as the sequence (Q09428 whole entry) above
Sequence of SUR1-regulated NCCa-ATP channels (Q09429 whole entry): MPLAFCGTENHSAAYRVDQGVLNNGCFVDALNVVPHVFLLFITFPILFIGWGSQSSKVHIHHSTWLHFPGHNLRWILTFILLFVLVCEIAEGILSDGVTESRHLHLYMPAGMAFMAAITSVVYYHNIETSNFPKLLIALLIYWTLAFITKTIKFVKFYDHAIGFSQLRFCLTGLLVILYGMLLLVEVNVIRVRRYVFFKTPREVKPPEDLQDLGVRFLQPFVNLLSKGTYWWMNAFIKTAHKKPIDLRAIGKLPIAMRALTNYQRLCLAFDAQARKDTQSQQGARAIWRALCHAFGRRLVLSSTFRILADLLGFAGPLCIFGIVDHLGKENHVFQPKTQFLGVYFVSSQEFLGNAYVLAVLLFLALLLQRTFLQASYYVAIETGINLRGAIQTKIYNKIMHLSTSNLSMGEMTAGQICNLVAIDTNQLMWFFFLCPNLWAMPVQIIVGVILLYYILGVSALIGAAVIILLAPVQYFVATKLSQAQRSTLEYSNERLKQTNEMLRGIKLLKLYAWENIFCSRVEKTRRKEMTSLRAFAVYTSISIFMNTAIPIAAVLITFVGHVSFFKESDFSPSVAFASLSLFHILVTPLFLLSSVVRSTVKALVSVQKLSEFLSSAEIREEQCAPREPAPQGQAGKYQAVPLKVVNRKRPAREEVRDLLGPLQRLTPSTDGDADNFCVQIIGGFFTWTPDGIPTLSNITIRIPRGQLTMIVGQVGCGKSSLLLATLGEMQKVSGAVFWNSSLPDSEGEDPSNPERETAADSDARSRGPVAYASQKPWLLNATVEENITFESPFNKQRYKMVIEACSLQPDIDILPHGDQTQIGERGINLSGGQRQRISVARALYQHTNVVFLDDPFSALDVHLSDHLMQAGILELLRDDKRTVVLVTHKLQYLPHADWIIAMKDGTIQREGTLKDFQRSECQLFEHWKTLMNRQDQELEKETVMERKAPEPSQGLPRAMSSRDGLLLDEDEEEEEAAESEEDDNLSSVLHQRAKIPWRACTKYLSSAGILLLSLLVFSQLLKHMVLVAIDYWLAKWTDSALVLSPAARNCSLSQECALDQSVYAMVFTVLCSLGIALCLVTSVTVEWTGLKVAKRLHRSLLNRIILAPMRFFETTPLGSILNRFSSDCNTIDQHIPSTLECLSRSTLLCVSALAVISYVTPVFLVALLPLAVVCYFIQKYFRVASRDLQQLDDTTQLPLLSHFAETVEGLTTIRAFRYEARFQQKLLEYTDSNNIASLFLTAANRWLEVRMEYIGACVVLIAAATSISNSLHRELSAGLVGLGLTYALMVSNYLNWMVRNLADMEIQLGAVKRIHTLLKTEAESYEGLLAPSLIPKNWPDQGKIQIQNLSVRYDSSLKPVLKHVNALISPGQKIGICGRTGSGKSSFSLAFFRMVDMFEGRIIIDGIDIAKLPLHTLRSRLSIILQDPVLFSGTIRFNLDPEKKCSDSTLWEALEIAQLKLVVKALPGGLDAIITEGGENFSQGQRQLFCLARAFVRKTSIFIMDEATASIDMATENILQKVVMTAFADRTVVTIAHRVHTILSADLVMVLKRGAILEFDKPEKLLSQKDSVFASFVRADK
Sequence of SUR1-regulated NCCa-ATP channels (Q9ESQ5 whole entry partner): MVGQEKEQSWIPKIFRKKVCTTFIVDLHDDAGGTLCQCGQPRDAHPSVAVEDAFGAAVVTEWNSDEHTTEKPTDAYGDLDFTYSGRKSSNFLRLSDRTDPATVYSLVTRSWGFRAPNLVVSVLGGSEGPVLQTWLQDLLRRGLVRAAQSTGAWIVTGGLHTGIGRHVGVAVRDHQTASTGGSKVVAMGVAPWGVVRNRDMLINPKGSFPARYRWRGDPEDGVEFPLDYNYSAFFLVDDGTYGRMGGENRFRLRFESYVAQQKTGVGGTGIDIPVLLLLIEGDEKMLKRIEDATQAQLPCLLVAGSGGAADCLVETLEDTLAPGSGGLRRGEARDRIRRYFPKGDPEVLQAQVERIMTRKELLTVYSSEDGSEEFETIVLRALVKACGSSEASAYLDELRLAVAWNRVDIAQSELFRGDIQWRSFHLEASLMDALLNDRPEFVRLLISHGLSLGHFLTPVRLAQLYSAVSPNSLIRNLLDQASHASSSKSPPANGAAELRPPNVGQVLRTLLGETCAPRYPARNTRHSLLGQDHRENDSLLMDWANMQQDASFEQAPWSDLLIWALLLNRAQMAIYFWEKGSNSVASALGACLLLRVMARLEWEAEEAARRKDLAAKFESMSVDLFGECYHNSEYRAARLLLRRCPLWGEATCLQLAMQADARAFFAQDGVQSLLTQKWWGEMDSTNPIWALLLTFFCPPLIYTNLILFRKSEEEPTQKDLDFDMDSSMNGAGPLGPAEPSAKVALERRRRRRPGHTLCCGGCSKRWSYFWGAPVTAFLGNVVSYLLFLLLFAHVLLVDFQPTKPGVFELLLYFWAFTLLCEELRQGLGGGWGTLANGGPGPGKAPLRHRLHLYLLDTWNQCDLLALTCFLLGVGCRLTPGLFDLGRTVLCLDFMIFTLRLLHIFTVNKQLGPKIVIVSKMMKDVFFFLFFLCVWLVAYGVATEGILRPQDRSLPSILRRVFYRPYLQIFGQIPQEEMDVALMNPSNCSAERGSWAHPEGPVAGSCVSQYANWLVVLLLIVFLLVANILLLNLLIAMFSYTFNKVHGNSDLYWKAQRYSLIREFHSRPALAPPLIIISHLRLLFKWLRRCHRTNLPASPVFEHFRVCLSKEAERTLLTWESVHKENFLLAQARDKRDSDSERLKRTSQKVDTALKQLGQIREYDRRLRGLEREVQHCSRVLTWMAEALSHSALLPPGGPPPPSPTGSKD

CCOc1cc(CC(=O)N[C@@H](CC(C)C)c2ccccc2N2CCCCC2)ccc1C(=O)O [repaglinide]
IC50 [1]: 0.9 to 7 nM
blood in cord homogenates ([2]; vehicle 1.8±0.2, P<0.01): 1.2 ± 0.1 µL
lesion volume, reduction compared to controls [3]: 3 fold
vertical exploration (rearing), time during 3-min observation ([4]; 1 d post-SCI, 200 ng/h s.q.): 27 ± 6 s
inclined plane, head down ([4]; post-SCI, vehicle 29±4, P=0.03): 47±3 degrees
inclined plane, head up ([4]; post-SCI, vehicle 40±4, P=0.01): 62±2 degrees

Nc1ncnc2c1ncn2[C@@H]1O[C@H](COP(=O)(O)OP(=O)(O)OP(=O)(O)O)[C@@H](O)[C@H]1O [ATP]
EC50 [5]: 790 nM

5′-GGCCGAGTGGTTCTCGGT-3′ (DNA, backbone not given here; phosphorothioate at four distal bonds) [AS-ODN]
blood in cord homogenates ([2]; ODN i.v., vs Scr-ODN): reduced blood in cord homogenates
lesion volume, reduction compared to controls [3]: 3 fold
immunolabeling for SUR1 in cord ([6]; 6 h post-SCI, ODN i.v. 1 mg/rat/24 h, vs controls): significantly less immunolabeling for SUR1
normal expression of SUR1 in dorsal horn cells ([6]; post-SCI, ODN i.v.): did not affect
performance on inclined plane [4, 12]: significantly better performance
vertical exploration [4, 12]: significantly better performance
SUR1 protein in gliotic capsule (Western blot) ([7]; ODN infused into injury site, vs Scr-ODN): significant reduction in SUR1 protein
depolarization of gliotic capsule astrocytes on ATP depletion by Na azide ([7]; vs Scr-ODN (rapidly depolarized)): depolarized only slightly or not at all

TNFα
Abcc8 mRNA and SUR1 protein [8]: both increased
activity of rAbcc8 promoter, increase [9]: ~2 fold
luciferase activity driven by NFκB binding sites, stimulation [9]: ~2.3 fold

CC1=NS(=O)(=O)c2cc(Cl)ccc2N1 [diazoxide]
whole-cell current response to diazoxide [10]: activated an ohmic current that reversed near 0 mV
whole-cell current response to diazoxide [11]: either had no effect or, in half of the cells, activated an outwardly rectifying current that reversed at potentials more negative than −50 mV
